According to ChEMBL document CHEMBL1142442, “Synthesis of chimeric tetrapeptide-linked cholic acid derivatives: impending synergistic agents” (Bioorg Med Chem Lett, 2008):
≈ marks a conversion by molar mass, not a printed value. Where a SMILES comes first, the peptide text is derived from it. The star is where a group is joined. Boc = CC(C)(C)OC(=O)*; OBn = c1ccc(CO*)cc1

Key:
[1] = test system: MCF7; assay: Antiproliferative activity against human MCF7 cells by MTT assay; assay type: functional, cell-based
[2] = test system: Candida albicans; assay: Antifungal activity at Candida albicans; assay type: functional
[3] = test system: Staphylococcus aureus; assay: Antibacterial activity at Staphylococcus aureus; assay type: functional
[4] = test system: Escherichia coli; assay: Antibacterial activity at Escherichia coli; assay type: functional
[5] = test system: HEK293; assay: Antiproliferative activity against HEK293 cells by MTT assay; assay type: cell-based; conditions: Homo sapiens
[6] = test system: Yarrowia lipolytica; assay: Antifungal activity at Yarrowia lipolytica; assay type: functional
[7] = test system: Escherichia coli; assay: Antibacterial activity at Escherichia coli assessed as concentration required to lower the MIC of erythromycin from 64 to 1 ug/mL after 24 hrs; assay type: functional
[8] = test system: Cryptococcus neoformans; assay: Antifungal activity at Cryptococcus neoformans; assay type: functional
[9] = test system: Fusarium oxysporum; assay: Antifungal activity at Fusarium oxysporum; assay type: functional
[10] = test system: MCF7; assay: Antiproliferative activity against human MCF7 cells at upto 80 uM by MTT assay; assay type: functional, cell-based
[11] = test system: HEK293; assay: Antiproliferative activity against HEK293 cells at upto 80 uM by MTT assay; assay type: cell-based; conditions: human
[12] = test system: Benjaminiella poitrasii; assay: Antifungal activity at Benjaminiella poitrasii; assay type: functional
[13] = test system: Candida albicans; assay: Antifungal activity at Candida albicans assessed as concentration required to lower the MIC of fluconazole from 32 to 1 ug/mL after 48 hrs; assay type: functional

SMILES	IC50 [1]	MIC [2]	MIC [3]	MIC [4]	IC50 [5]	MIC [6]	MIC [7]	MIC [8]	MIC [9]	Activity [10]	Activity [11]	MIC [12]	MIC [13]
CC(=O)OCCC[C@@H](C)[C@H]1CC[C@H]2[C@@H]3[C@H](OC(C)=O)C[C@@H]4C[C@@H](NC(=O)CNC(=O)CNC(=O)CNC(=O)CN)CC[C@]4(C)[C@H]3C[C@H](O)[C@]12C	150 µM	64 µg/mL (≈ 90.7 µM)	64 µg/mL (≈ 90.7 µM)	> 128 µg/mL	800 µM	> 128 µg/mL	8 µg/mL	> 128 µg/mL	32 µg/mL (≈ 45.3 µM)	Non-toxic	Non-toxic	16 µg/mL (≈ 22.7 µM)	6 µg/mL
CC(C)(C)OC(=O)NCC(=O)NCC(=O)NCC(=O)NCC(=O)O (Boc-GGGG-OH)		> 128 µg/mL		64 µg/mL (≈ 185 µM)			128 µg/mL						64 µg/mL
C[C@H](CCCO)[C@H]1CC[C@H]2[C@@H]3[C@H](O)C[C@@H]4C[C@@H](NC(=O)CCNC(=O)CCNC(=O)CCNC(=O)CCN)CC[C@]4(C)[C@H]3C[C@H](O)[C@]12C	> 1000 µM	64 µg/mL (≈ 94.4 µM)	> 128 µg/mL	32 µg/mL (≈ 47.2 µM)	800 µM	> 128 µg/mL	8 µg/mL	> 128 µg/mL	> 128 µg/mL	Non-toxic	Non-toxic	64 µg/mL (≈ 94.4 µM)	6 µg/mL
C[C@@H]1[C@H](O)[C@@H](C)/C=C/C=C/C=C/C=C/C=C/C=C/C=C/[C@H](O[C@@H]2O[C@H](C)[C@@H](O)[C@H](N)[C@@H]2O)C[C@@H]2O[C@](O)(C[C@@H](O)C[C@@H](O)[C@H](O)CC[C@@H](O)C[C@@H](O)CC(=O)O[C@H]1C)C[C@H](O)[C@H]2C(=O)O [AMPHOTERICIN B]		2 µg/mL (≈ 2.16 µM)				16 µg/mL (≈ 17.3 µM)		16 µg/mL (≈ 17.3 µM)	16 µg/mL (≈ 17.3 µM)			16 µg/mL (≈ 17.3 µM)	
C[C@H](CCC(=O)O)[C@H]1CC[C@H]2[C@@H]3[C@H](O)C[C@@H]4C[C@@H](NC(=O)CCNC(=O)CCNC(=O)CCNC(=O)CCN)CC[C@]4(C)[C@H]3C[C@H](O)[C@]12C	200 µM	32 µg/mL (≈ 46.2 µM)	> 128 µg/mL	32 µg/mL (≈ 46.2 µM)	> 1000 µM	> 128 µg/mL	4 µg/mL	> 128 µg/mL	64 µg/mL (≈ 92.5 µM)	Non-toxic	Non-toxic	24 µg/mL (≈ 34.7 µM)	1 µg/mL
COC(=O)CC[C@@H](C)[C@H]1CC[C@H]2[C@@H]3[C@H](O)C[C@@H]4C[C@@H](NC(=O)CCNC(=O)CCNC(=O)CCNC(=O)CCNC(=O)OC(C)(C)C)CC[C@]4(C)[C@H]3C[C@H](O)[C@]12C	100 µM	32 µg/mL (≈ 39.7 µM)	> 128 µg/mL	> 128 µg/mL	> 1000 µM	96 µg/mL (≈ 119 µM)	16 µg/mL	> 128 µg/mL	64 µg/mL (≈ 79.4 µM)	Non-toxic	Non-toxic	16 µg/mL (≈ 19.8 µM)	6 µg/mL
C[C@H](CCCO)[C@H]1CC[C@H]2[C@@H]3[C@H](O)C[C@@H]4C[C@@H](NC(=O)CCNC(=O)CCNC(=O)CCNC(=O)CCNC(=O)OC(C)(C)C)CC[C@]4(C)[C@H]3C[C@H](O)[C@]12C	> 1000 µM	128 µg/mL (≈ 165 µM)	> 128 µg/mL	> 128 µg/mL	800 µM	> 128 µg/mL	20 µg/mL	> 128 µg/mL	64 µg/mL (≈ 82.3 µM)	Non-toxic	Non-toxic	> 128 µg/mL	12 µg/mL
COC(=O)CC[C@@H](C)[C@H]1CC[C@H]2[C@@H]3[C@H](O)C[C@@H]4C[C@@H](NC(=O)CNC(=O)CNC(=O)CNC(=O)CNC(=O)OC(C)(C)C)CC[C@]4(C)[C@H]3C[C@H](O)[C@]12C	300 µM	16 µg/mL (≈ 21.3 µM)	32 µg/mL (≈ 42.7 µM)	96 µg/mL (≈ 128 µM)	600 µM	> 128 µg/mL	24 µg/mL	> 128 µg/mL	64 µg/mL (≈ 85.3 µM)	Non-toxic	Non-toxic	64 µg/mL (≈ 85.3 µM)	8 µg/mL
C[C@H](CCC(=O)O)[C@H]1CC[C@H]2[C@@H]3[C@H](O)C[C@@H]4C[C@H](O)CC[C@]4(C)[C@H]3C[C@H](O)[C@]12C [CHOLIC ACID]	50 µM	> 128 µg/mL	> 128 µg/mL	> 128 µg/mL	> 1000 µM	> 128 µg/mL	64 µg/mL	> 128 µg/mL	> 128 µg/mL			128 µg/mL (≈ 313 µM)	64 µg/mL
CC(C)(C)OC(=O)NCCC(=O)NCCC(=O)NCCC(=O)NCCC(=O)OCc1ccccc1		> 128 µg/mL		128 µg/mL (≈ 260 µM)			64 µg/mL						128 µg/mL
CC(=O)OCCC[C@@H](C)[C@H]1CC[C@H]2[C@@H]3[C@H](OC(C)=O)C[C@@H]4C[C@@H](NC(=O)CNC(=O)CNC(=O)CNC(=O)CNC(=O)OC(C)(C)C)CC[C@]4(C)[C@H]3C[C@H](O)[C@]12C	500 µM	64 µg/mL (≈ 79.4 µM)	> 128 µg/mL	64 µg/mL (≈ 79.4 µM)	200 µM	> 128 µg/mL	24 µg/mL	> 128 µg/mL	64 µg/mL (≈ 79.4 µM)	Non-toxic	Non-toxic	32 µg/mL (≈ 39.7 µM)	12 µg/mL
COC(=O)CC[C@@H](C)[C@H]1CC[C@H]2[C@@H]3[C@H](O)C[C@@H]4C[C@@H](NC(=O)CCNC(=O)CCNC(=O)CCNC(=O)CCN)CC[C@]4(C)[C@H]3C[C@H](O)[C@]12C	600 µM	128 µg/mL (≈ 181 µM)	64 µg/mL (≈ 90.7 µM)	96 µg/mL (≈ 136 µM)	700 µM	> 128 µg/mL	8 µg/mL	> 128 µg/mL	32 µg/mL (≈ 45.3 µM)	Non-toxic	Non-toxic	24 µg/mL (≈ 34 µM)	3 µg/mL
CC[C@H]1OC(=O)[C@H](C)[C@@H](O[C@H]2C[C@@](C)(OC)[C@@H](O)[C@H](C)O2)[C@H](C)[C@@H](O[C@@H]2O[C@H](C)C[C@H](N(C)C)[C@H]2O)[C@](C)(O)C[C@@H](C)C(=O)[C@H](C)[C@@H](O)[C@]1(C)O [ERYTHROMYCIN]			32 µg/mL (≈ 43.6 µM)	64 µg/mL (≈ 87.2 µM)									
CC(=O)OCCC[C@@H](C)[C@H]1CC[C@H]2[C@@H]3[C@H](OC(C)=O)C[C@@H]4C[C@@H](NC(=O)CCNC(=O)CCNC(=O)CCNC(=O)CCNC(=O)OC(C)(C)C)CC[C@]4(C)[C@H]3C[C@H](O)[C@]12C	150 µM	32 µg/mL (≈ 37.1 µM)	32 µg/mL (≈ 37.1 µM)	> 128 µg/mL	80 µM	96 µg/mL (≈ 111 µM)	10 µg/mL	> 128 µg/mL	> 128 µg/mL	Non-toxic	Non-toxic	64 µg/mL (≈ 74.2 µM)	8 µg/mL
NCC(=O)NCC(=O)NCC(=O)NCC(=O)O (H-GGGG-OH)		128 µg/mL (≈ 520 µM)		> 128 µg/mL			64 µg/mL						> 128 µg/mL
OC(Cn1cncn1)(Cn1cncn1)c1ccc(F)cc1F [FLUCONAZOLE]		32 µg/mL (≈ 104 µM)				64 µg/mL (≈ 209 µM)		32 µg/mL (≈ 104 µM)	8 µg/mL (≈ 26.1 µM)			32 µg/mL (≈ 104 µM)	
CC(CCC(=O)O)C1CCC2C3C(O)CC4CC(NC(=O)CCNC(=O)CCNC(=O)CCNC(=O)CCNC(=O)OC(C)(C)C)CCC4(C)C3CC(O)C12C (configuration not stated)	> 1000 µM	32 µg/mL (≈ 40.4 µM)	> 128 µg/mL	> 128 µg/mL	> 1000 µM	> 128 µg/mL	16 µg/mL	> 128 µg/mL	64 µg/mL (≈ 80.8 µM)	Non-toxic	Non-toxic	48 µg/mL (≈ 60.6 µM)	12 µg/mL
CN(C)[C@@H]1C(O)=C(C(N)=O)C(=O)[C@@]2(O)C(O)=C3C(=O)c4c(O)cccc4[C@@](C)(O)[C@H]3C[C@@H]12 [TETRACYCLINE]			16 µg/mL (≈ 36 µM)	8 µg/mL (≈ 18 µM)									
CC(C)(C)OC(=O)NCC(=O)NCC(=O)NCC(=O)NCC(=O)OCc1ccccc1 (Boc-GGGG-OBn)		> 128 µg/mL		128 µg/mL (≈ 293 µM)			128 µg/mL						128 µg/mL
NCCC(=O)NCCC(=O)NCCC(=O)NCCC(=O)O		> 128 µg/mL		128 µg/mL (≈ 423 µM)			> 128 µg/mL						128 µg/mL
COC(=O)CC[C@@H](C)[C@H]1CC[C@H]2[C@@H]3[C@H](O)C[C@@H]4C[C@@H](NC(=O)CNC(=O)CNC(=O)CNC(=O)CN)CC[C@]4(C)[C@H]3C[C@H](O)[C@]12C	500 µM	32 µg/mL (≈ 49.2 µM)	96 µg/mL (≈ 148 µM)	> 128 µg/mL	80 µM	> 128 µg/mL	12 µg/mL	> 128 µg/mL	128 µg/mL (≈ 197 µM)	Non-toxic	Non-toxic	64 µg/mL (≈ 98.5 µM)	6 µg/mL
CC(C)(C)OC(=O)NCCC(=O)NCCC(=O)NCCC(=O)NCCC(=O)O		> 128 µg/mL		64 µg/mL (≈ 159 µM)			> 128 µg/mL						64 µg/mL
